Assays:
Assay in all cases: Bliss excess, mean over the matrix (fraction); higher = more synergy
[1] = tested on: KU812 (Chronic Myelogenous Leukemia)
Procedure, shortened: (§1)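 Bliss excess equals the observed combination effect minus the expected value EA + EB − EA·EB, where EA and EB are the effects of each agent alone. Combination Emax is the second-highest inhibition within the matrix. Inhibition was scaled from CellTiter-Glo 2.0 luminescence, with 0 set by vehicle wells and 1 by blank wells, after 72 hours of two-drug dosing of cells plated in 1536-well plates.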

[2] = tested on: COR-L279 (Small Cell Lung Carcinoma)
Procedure, shortened: as §1

[3] = tested on: NCI-H661 (Non-Small Cell Lung Carcinoma)
Procedure, shortened: as §1

NCI-H2731 (Mesothelioma) = tested on: NCI-H2731 (Mesothelioma)
Procedure, shortened: as §1

[4] = tested on: SUP-B15 (B-Lymphoblastic Leukemia)
Procedure, shortened: as §1

[5] = tested on: KYSE-270 (Esophageal Squamous Cell Carcinoma)
Procedure, shortened: as §1

[6] = tested on: PC-3 (Prostate Carcinoma)
Procedure, shortened: as §1

[7] = tested on: 8505C (Thyroid Gland Carcinoma)
Procedure, shortened: as §1

[8] = tested on: T-T (Esophageal Squamous Cell Carcinoma)
Procedure, shortened: as §1

[9] = tested on: ESO51 (Esophageal Adenocarcinoma)
Procedure, shortened: as §1

[10] = tested on: SU-DHL-5 (B-Cell Non-Hodgkin's Lymphoma)
Procedure, shortened: as §1

[11] = tested on: KY821 (Acute Myeloid Leukemia)
Procedure, shortened: as §1

[12] = tested on: RPMI-8226 (Plasma Cell Myeloma)
Procedure, shortened: as §1

[13] = tested on: NCI-H929 (Plasma Cell Myeloma)
Procedure, shortened: as §1

[14] = tested on: MN-60 (B-Lymphoblastic Leukemia)
Procedure, shortened: as §1

[15] = tested on: IM-95 (Gastric Carcinoma)
Procedure, shortened: as §1

[16] = tested on: MOG-G-CCM (Low Grade Glioma)
Procedure, shortened: as §1

[17] = tested on: KP-3 (Pancreatic Carcinoma)
Procedure, shortened: as §1

G-361 (Melanoma) = tested on: G-361 (Melanoma)
Procedure, shortened: as §1

[18] = tested on: NCI-H520 (Squamous Cell Lung Carcinoma)
Procedure, shortened: as §1

Structure (SMILES)	Bliss excess [1]	Bliss excess [2]	Bliss excess [3]	Bliss excess (NCI-H2731 (Mesothelioma))	Bliss excess [4]	Bliss excess [5]	Bliss excess [6]	Bliss excess [7]	Bliss excess [8]	Bliss excess [9]	Bliss excess [10]	Bliss excess [11]	Bliss excess [12]	Bliss excess [13]	Bliss excess [14]	Bliss excess [15]	Bliss excess [16]	Bliss excess [17]	Bliss excess (G-361 (Melanoma))	Bliss excess [18]
Cn1cnc2c(F)c(Nc3ccc(Br)cc3Cl)c(C(=O)NOCCO)cc21 [Selumetinib] + CCN(CCO)CCCOc1ccc2c(Nc3cc(CC(=O)Nc4cccc(F)c4)[nH]n3)ncnc2c1 [AZD2811] (first compound max 10 µM, 7x7, partner max 1 µM)	-0.0731	-0.0243	-0.0645	-0.0293	0.0553	0.0103	-0.057	-0.0546	-0.0072	0.0567	0.0214	0.05	0.0053	0.01	-0.0202	0.0874	-0.0745	-0.0293	0.0005	-0.0221
Cc1c2c(nn1C)CSCc1cc(n(C)n1)CSc1cc(c3ccccc3c1)OCCCc1c(C(=O)O)n(C)c3c-2c(Cl)ccc13 [AZD5991] + C=CCn1c(=O)c2cnc(Nc3ccc(N4CCN(C)CC4)cc3)nc2n1-c1cccc(C(C)(C)O)n1 [AZD1775] (first compound max 1 µM, partner max 1 µM)	-0.0284	-0.0632	0.0429	-0.0336	0.0171	0.013	0.0111	0.0256	0.0282	0.011	0.0028	-0.0329	-0.0006	0.0023	-0.0077	0.0201	-0.0287	0.0154	0.0513	0.0221
CCN(CCO)CCCOc1ccc2c(Nc3cc(CC(=O)Nc4cccc(F)c4)[nH]n3)ncnc2c1 [AZD2811] + C=CCn1c(=O)c2cnc(Nc3ccc(N4CCN(C)CC4)cc3)nc2n1-c1cccc(C(C)(C)O)n1 [AZD1775] (first compound max 1 µM, partner max 1 µM)	-0.034	0.0107	-0.0029	0.0089	0.044	-0.0281	-0.0117	-0.0071	-0.037	-0.0002	-0.0309	0.0868	-0.0172	-0.0671	0.0139	0.0486	-0.0178	-0.036	-0.0162	-0.108
CC(=O)c1c(C)c2cnc(Nc3ccc(N4CCNCC4)cn3)nc2n(C2CCCC2)c1=O [Palbociclib] + Cc1c2c(nn1C)CSCc1cc(n(C)n1)CSc1cc(c3ccccc3c1)OCCCc1c(C(=O)O)n(C)c3c-2c(Cl)ccc13 [AZD5991] (first compound max 10 µM, 7x7, partner max 1 µM)	-0.0351	0.006	-0.0443	-0.0484	-0.207	-0.0804	-0.0501	-0.175	0.0028	-0.0192	-0.0071	-0.0372	-0.0191	0.0099	-0.0363	-0.114	-0.0595	-0.0436	-0.0464	0.0024
CN(CCO)CC[C@H](CSc1ccccc1)Nc1ccc(S(=O)(=O)NC(=O)c2ccc(N3CCC([C@@H](O)c4ccccc4-c4ccc(Cl)cc4)CC3)cc2)cc1S(=O)(=O)C(F)(F)F [AZD4320] + C[C@@H](Nc1cc(F)cc(F)c1)c1cc(C(=O)N(C)C)cc2c(=O)cc(N3CCOCC3)oc12 [AZD8186] (first compound max 1 µM, 7x7, partner max 3 µM)	0.0161	0.0217	0.0424	0.0288	0.0179	0.0225	0.057	0.0411	0.054	0.0996	0.0003	0.0053	0.0151	-0.0036	-0.0104	0.0117	-0.018	0.0002	0.027	0.0618
